Assay results as given in ChEMBL document CHEMBL1201862, “PubChem BioAssay data set” (2004).
Blank lines part the entries; values can stand above or below the compound they belong to. Active and inactive are the calls of the source.

Key:
[1] = molecular target: Ras and Rab interactor 1/Tyrosine-protein kinase ABL1 (Homo sapiens, UniProt P00519+Q13671); format: functional;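 also: biochemical TR-FRET dose-response test measuring inhibition of binding between Rin1 and Abl proteins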
[2] = molecular target: T1, Histone-lysine N-methyltransferase NSD2 (Homo sapiens, UniProt O96028); format: biochemical
T1 sequence (O96028 whole entry): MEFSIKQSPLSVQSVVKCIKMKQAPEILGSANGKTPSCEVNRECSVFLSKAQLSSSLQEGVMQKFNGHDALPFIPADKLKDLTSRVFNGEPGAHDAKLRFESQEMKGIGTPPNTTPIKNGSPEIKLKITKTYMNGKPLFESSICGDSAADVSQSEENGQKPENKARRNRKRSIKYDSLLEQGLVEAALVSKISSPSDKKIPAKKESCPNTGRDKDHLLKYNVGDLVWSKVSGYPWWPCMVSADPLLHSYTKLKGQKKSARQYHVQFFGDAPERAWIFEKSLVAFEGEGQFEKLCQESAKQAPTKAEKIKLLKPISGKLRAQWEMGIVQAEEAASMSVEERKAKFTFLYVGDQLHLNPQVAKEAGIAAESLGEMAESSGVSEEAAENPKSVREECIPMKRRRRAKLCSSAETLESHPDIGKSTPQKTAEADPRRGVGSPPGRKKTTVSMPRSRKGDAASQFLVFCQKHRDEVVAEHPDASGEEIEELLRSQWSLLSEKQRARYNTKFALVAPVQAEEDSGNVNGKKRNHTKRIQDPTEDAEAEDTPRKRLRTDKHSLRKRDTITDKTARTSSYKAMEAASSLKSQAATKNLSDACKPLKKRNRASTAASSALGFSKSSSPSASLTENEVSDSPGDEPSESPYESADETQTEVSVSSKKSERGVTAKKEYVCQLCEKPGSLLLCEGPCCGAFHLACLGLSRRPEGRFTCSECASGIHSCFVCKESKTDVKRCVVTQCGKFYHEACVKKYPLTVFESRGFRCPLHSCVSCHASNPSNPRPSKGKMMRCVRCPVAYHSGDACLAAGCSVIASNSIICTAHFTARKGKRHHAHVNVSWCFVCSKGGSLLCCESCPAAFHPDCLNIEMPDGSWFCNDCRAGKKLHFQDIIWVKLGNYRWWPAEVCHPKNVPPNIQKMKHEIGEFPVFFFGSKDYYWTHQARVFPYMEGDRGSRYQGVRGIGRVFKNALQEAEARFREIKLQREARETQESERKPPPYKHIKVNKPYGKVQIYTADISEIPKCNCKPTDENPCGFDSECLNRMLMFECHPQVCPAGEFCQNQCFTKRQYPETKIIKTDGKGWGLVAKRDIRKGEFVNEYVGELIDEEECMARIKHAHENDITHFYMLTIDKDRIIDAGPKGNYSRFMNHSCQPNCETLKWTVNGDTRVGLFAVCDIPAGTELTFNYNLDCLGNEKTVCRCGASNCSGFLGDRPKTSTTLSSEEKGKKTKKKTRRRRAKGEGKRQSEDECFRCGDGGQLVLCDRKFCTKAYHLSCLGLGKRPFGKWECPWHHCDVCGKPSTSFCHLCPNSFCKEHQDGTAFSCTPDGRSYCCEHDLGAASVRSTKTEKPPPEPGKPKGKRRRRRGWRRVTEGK

[3] = reduction of Shn3 3'UTR-driven luciferase in osteoblasts – cell-based, Clone20 osteoblasts, firefly luciferase, cherry-picked, dose response (AID 624132); format: functional;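 also: firefly luciferase luminescence from reporter carrying the Shn3 3'UTR in osteoblasts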
[4] = non-specific 3'UTR reporter inhibition in Clone20-Shn3RL – cell-based, Renilla luciferase, cherry-picked, counter-screen for Shn3 inhibitor project, dose response (AID 624133); format: functional
[5] = molecular target: T2, COUP transcription factor 2 (Homo sapiens, UniProt P24468); experiment: Luminescence-based cell-based high throughput dose response assay to identify inhibitors of COUP-TFII (NR2F2).; format: functional;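 also: HEK293 cells transiently cotransfected with COUP-TFII expression vector and reporter; luciferase reporter luminescence driven by COUP-TFII from the pX2-168 reporter plasmid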
T2 sequence (P24468 whole entry): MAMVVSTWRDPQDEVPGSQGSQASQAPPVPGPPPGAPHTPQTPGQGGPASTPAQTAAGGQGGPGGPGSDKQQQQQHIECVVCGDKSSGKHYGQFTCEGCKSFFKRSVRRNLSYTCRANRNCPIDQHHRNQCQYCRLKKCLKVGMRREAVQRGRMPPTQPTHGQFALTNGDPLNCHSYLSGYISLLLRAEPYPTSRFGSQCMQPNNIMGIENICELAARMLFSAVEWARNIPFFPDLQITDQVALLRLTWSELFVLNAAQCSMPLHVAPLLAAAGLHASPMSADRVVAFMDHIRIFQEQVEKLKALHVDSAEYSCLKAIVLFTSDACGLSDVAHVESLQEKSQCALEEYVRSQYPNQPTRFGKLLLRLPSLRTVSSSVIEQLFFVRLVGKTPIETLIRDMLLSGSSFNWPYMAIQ

[6] = loss of viability in HepG2 cells – cell-based, CellTiter-Glo, cherry-picked, cytotoxicity control for Shn3 inhibitor project, dose response (AID 624134); format: functional
Protein Wnt-3a = Protein Wnt-3a (Mus musculus, UniProt P27467); experiment: antagonism of Wnt3a pathway luciferase reporter – Wnt-LIGHT cells, luminescence, selectivity assay for Gli-SUFU antagonist project, dose response (AID 651570); format: functional; conditions: read-out: IC50_Mean;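 also: Wnt-LIGHT reporter cells stimulated with conditioned medium from Wnt3a-producing cells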
Sequence of Protein Wnt-3a (P27467 whole entry): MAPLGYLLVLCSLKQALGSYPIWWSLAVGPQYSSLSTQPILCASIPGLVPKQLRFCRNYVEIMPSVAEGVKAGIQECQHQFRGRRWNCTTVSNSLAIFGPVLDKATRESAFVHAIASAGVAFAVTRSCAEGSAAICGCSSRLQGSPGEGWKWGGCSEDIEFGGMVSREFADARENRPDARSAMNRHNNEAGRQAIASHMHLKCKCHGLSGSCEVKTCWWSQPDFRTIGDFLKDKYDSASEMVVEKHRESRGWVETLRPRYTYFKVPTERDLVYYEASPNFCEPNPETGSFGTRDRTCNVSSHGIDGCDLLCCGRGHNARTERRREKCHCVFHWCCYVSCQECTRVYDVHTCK

CHO-K1 = experiment: (§1) Counterscreen for antagonists of the orexin 1 receptor (OX1R; HCRTR1): Homogeneous time resolved fluorescence (HTRF)-based cell-based dose response assay to identify antagonists of the parental CHO-K1 cell line. [Related pubchem assays (depositor defined):AID434989, AID435008, AID463079, AID485270, AID492963, AID492964, AID492965, AID493232, AID504699, AID504701]; format: functional; conditions: Cricetulus griseus
[7] = molecular target: T3, Orexin/Hypocretin receptor type 1 (Homo sapiens, UniProt O43613); experiment: (§2) Fluorescence-based cell-based high throughput dose response assay for antagonists of the orexin 1 receptor (OX1R; HCRTR1). [Related pubchem assays (depositor defined):AID434989, AID435008, AID463079, AID485270, AID492963, AID492964, AID492965, AID493232, AID504717, AID504718]; format: functional
T3 sequence (O43613 whole entry): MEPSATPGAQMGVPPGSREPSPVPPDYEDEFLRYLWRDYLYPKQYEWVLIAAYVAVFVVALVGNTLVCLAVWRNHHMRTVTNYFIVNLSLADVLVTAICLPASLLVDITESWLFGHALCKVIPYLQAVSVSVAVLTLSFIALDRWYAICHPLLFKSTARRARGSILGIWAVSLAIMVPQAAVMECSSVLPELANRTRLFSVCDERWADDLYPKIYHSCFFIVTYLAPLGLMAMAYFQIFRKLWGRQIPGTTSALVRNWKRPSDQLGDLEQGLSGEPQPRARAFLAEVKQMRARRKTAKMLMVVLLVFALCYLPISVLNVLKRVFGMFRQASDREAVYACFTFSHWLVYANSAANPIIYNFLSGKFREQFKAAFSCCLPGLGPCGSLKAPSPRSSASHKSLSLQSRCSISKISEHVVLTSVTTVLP

Orexin receptor type 2 [8] = molecular target: T4, Orexin receptor type 2 (Homo sapiens, UniProt O43614); experiment: Counterscreen assay for antagonists of the orexin 1 receptor (OX1R; HCRTR1): Fluorescence-based cell-based dose response assay for antagonists of the orexin 2 receptor (OX2R; HCRTR2), run by assay provider.; format: functional
T4 sequence (O43614 whole entry): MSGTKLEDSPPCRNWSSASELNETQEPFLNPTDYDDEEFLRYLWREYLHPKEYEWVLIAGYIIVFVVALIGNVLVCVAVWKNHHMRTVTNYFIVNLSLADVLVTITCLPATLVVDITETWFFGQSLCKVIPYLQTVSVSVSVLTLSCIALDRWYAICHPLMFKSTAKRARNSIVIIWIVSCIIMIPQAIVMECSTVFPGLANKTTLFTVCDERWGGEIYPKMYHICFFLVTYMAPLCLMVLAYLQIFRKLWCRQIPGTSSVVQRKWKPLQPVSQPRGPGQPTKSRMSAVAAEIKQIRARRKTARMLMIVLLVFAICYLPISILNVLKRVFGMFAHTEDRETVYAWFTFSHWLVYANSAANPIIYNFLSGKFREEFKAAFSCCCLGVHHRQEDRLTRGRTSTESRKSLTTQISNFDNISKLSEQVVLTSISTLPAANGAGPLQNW

[9] = molecular target: T3, Orexin/Hypocretin receptor type 1; experiment: as §2, with “Homogeneous Time Resolved Fluorescence (HTRF)-based” for “Fluorescence-based”; format: functional
[10] = as §1, with “Fluorescence-based” for “Homogeneous time resolved fluorescence (HTRF)-based”, “cell-based high throughput” for “cell-based”, “CHO” for “CHO-K1”; format: functional
Orexin receptor type 2 [11] = molecular target: T4, Orexin receptor type 2; experiment: Counterscreen assay for antagonists of the orexin 1 receptor (OX1R; HCRTR1): Homogeneous Time Resolved Fluorescence (HTRF)-based cell-based dose response assay for antagonists of the orexin 2 receptor (OX2R; HCRTR2), run by assay provider.; format: functional
[12] = Luminescence Cell-Based Dose Confirmation HTS to Identify Inhibitors of Platelet Dense Granule Release. [Related pubchem assays: 1663 (Primary HTS), 1678 (Summary of Project)]; format: functional
[13] = viability loss in HepG2 hepatoma cells – cell-based, ATP luminescence, cherry-pick, activator set 2, cytotoxicity control, dose response (AID 1053143); format: functional
[14] = molecular target: Luciferin 4-monooxygenase (Photinus pyralis, UniProt P08659); experiment: inhibition of purified Photinus pyralis luciferase – biochemical, luminescence, dose response (AID 1891)
Sequence of Luciferin 4-monooxygenase (P08659 whole entry): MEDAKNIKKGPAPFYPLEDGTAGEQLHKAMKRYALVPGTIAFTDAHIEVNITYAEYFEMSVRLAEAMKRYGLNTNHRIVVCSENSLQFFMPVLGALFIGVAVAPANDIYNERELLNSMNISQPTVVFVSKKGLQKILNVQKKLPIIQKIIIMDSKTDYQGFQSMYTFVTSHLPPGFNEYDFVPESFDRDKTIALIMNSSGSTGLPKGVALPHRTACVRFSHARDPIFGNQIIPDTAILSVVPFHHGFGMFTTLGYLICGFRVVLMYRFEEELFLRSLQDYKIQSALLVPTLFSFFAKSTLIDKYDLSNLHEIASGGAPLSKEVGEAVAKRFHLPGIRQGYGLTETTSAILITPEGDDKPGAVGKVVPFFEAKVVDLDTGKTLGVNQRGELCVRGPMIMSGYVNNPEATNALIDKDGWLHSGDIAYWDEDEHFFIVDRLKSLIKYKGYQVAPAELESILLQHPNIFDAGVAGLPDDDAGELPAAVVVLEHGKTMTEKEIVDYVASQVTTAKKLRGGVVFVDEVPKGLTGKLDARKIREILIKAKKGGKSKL

[15] = molecular target: Heat shock protein HSP 90-alpha (Homo sapiens, UniProt P07900); format: functional, organism-based
[16] = molecular target: Mitochondrial peptide methionine sulfoxide reductase (Bos taurus, UniProt P54149); experiment: Absorbance-based biochemical high throughput dose response assay for activators of Methionine sulfoxide reductase A (MsrA).; format: functional
Sequence of Mitochondrial peptide methionine sulfoxide reductase (P54149 whole entry): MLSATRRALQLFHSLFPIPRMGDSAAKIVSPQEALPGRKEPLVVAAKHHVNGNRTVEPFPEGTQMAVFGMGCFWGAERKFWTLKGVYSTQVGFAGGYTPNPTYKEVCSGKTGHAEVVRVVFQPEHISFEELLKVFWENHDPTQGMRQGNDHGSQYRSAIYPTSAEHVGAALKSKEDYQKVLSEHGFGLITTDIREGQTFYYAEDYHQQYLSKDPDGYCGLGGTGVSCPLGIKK

[17] = molecular target: T5, Tyrosyl-DNA phosphodiesterase 2 (Homo sapiens, UniProt O95551); experiment: potency against TDP2 phosphodiesterase activity – biochemical, epi absorbance, IC50, dose response (AID 743297)
T5 sequence (O95551 whole entry): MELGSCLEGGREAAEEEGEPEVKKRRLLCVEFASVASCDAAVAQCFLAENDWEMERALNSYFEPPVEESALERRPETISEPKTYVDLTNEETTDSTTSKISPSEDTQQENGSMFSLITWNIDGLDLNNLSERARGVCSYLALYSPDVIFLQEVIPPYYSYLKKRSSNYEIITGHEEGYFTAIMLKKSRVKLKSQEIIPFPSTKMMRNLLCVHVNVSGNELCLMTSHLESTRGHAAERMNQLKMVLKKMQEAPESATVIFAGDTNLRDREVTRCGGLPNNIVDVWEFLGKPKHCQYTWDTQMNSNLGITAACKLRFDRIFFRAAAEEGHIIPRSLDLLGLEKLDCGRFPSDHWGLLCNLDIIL

[18] = molecular target: T6, RNA-editing ligase 1, mitochondrial (Trypanosoma brucei brucei, UniProt P86926); experiment: inhibition of trypanosome RNA editing ligase – biochemical, fluorescence, Trypanosoma brucei, dose response (AID 1117295); format: functional
T6 sequence (P86926 whole entry): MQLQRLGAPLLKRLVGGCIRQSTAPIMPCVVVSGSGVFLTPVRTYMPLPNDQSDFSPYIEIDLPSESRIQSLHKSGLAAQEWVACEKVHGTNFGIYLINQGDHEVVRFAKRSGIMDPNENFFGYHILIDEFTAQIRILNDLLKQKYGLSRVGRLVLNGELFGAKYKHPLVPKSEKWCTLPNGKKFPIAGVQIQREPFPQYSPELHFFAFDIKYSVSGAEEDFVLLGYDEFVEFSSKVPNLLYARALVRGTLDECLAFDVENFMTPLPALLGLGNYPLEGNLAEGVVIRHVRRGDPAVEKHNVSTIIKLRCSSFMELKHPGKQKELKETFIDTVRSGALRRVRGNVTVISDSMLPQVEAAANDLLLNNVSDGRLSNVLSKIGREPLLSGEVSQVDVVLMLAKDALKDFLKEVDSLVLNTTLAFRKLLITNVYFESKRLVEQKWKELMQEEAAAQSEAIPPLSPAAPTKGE

Sequence of Ras and Rab interactor 1/Tyrosine-protein kinase ABL1 (P00519 whole entry): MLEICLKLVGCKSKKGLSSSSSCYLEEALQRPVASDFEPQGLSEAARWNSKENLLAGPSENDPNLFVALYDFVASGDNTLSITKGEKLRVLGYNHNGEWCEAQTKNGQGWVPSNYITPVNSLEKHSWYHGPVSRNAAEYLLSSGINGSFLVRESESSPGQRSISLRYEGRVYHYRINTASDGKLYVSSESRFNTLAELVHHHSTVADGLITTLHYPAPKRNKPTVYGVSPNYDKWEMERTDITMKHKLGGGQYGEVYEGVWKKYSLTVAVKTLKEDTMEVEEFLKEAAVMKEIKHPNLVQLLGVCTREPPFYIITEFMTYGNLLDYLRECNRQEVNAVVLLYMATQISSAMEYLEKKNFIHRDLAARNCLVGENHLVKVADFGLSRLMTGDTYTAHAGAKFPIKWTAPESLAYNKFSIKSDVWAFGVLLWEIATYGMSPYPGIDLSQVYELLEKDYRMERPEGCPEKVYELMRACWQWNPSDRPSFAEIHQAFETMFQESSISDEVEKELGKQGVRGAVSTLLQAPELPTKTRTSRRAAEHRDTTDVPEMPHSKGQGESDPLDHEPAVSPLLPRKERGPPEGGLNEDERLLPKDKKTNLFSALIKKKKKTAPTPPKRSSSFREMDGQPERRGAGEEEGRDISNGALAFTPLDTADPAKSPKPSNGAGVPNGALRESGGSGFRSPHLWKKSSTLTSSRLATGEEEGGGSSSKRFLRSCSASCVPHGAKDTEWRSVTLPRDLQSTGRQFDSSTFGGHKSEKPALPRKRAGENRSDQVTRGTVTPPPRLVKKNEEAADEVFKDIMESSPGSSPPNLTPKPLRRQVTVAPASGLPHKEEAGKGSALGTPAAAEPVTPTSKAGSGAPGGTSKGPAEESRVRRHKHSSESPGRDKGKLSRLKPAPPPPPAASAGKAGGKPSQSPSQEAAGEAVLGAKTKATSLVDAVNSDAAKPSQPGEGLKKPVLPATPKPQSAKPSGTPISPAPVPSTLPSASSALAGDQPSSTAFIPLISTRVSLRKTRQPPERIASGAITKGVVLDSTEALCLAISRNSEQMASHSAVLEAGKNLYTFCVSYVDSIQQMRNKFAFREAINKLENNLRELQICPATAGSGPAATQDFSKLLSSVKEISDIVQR
Sequence of Ras and Rab interactor 1/Tyrosine-protein kinase ABL1 (Q13671 whole entry): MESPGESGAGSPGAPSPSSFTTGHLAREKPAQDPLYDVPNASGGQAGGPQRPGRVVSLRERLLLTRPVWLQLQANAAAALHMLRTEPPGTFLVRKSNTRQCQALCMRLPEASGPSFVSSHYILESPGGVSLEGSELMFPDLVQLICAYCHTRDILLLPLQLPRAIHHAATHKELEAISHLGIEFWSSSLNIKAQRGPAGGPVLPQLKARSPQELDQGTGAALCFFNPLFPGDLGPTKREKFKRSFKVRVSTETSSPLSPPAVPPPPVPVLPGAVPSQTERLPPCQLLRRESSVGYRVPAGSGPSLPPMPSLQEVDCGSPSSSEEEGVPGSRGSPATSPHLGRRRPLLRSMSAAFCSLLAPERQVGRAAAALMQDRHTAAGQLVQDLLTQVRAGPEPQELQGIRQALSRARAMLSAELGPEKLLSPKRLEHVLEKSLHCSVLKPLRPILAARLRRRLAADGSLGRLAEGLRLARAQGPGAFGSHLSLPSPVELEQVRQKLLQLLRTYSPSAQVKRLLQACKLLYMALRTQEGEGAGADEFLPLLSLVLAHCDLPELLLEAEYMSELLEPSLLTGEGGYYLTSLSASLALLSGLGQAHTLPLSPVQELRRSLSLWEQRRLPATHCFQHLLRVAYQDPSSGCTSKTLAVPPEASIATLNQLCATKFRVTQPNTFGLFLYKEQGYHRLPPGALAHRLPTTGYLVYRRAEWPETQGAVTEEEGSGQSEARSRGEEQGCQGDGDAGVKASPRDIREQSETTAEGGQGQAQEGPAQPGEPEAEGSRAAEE

IC50 [1]: 2.62 µM (active)
Structure (SMILES): Cn1c(=O)c2c(nc(-n3ccnc3)n2Cc2ccc(Cl)cc2Cl)n(C)c1=O

IC50 [1]: 0.0967 µM (active)
AC50 [2]: 7.6 µM (active)
Structure (SMILES): CCOC(=O)CCCCC(=O)c1[nH]c(O)nc1CSc1nc2ccccc2[nH]1

Structure (SMILES): CC1C(OC(=O)CCC(=O)NC(C)(C)CO)O[C@H]2OC3(C)CC[C@H]4[C@H](C)CCC1C24OO3 (some centres not stated)
AC50 [3]: 0.495 µM (active)
AC50 [4]: 0.841 µM (active)
IC50 [5]: > 85.4 µM (inactive)
AC50 [6]: > 70 µM (inactive)
IC50 (Protein Wnt-3a): 0.794 µM (active)

Structure (SMILES): CCOC(=O)N1CCN(C(=O)CSc2ccc(-c3ccccc3)nn2)CC1
IC50 (CHO-K1): > 66.2 µM (inactive)
IC50 [7]: 16.3 µM (inactive)
IC50 (Orexin receptor type 2 [8]): > 88.8 µM (inactive)
IC50 [9]: 2.12 µM (active)
IC50 [10]: > 49.7 µM (inactive)
IC50 (Orexin receptor type 2 [11]): > 50 µM (inactive)

Structure (SMILES): COc1cccc2oc3ccc(C#Cc4ccccn4)cc3c(=O)c12
IC50 (CHO-K1): > 66.2 µM (inactive)
EC50 [12]: 5.1 µM (active)
AC50 [13]: 16.4 µM (active)
IC50 [7]: 13.5 µM (inactive)
IC50 (Orexin receptor type 2 [8]): > 88.8 µM (inactive)
IC50 [9]: 0.881 µM (active)
IC50 [10]: > 49.8 µM (inactive)
EC50 [14]: 1.19 µM (active)
IC50 (Orexin receptor type 2 [11]): 0.82 µM (active)

Structure (SMILES): Cc1noc(C)c1COc1ccc(C(=O)OCC(=O)N2CC(=O)Nc3ccccc32)cc1
IC50 (CHO-K1): > 66.2 µM (inactive)
IC50 [7]: 0.861 µM (active)
IC50 (Orexin receptor type 2 [8]): > 88.8 µM (inactive)
IC50 [9]: 14.9 µM (inactive)
IC50 [10]: > 49.8 µM (inactive)
IC50 (Orexin receptor type 2 [11]): > 50 µM (inactive)

Structure (SMILES): Cc1c(CCCl)c(Cl)n2c(nc3ccccc32)c1C#N
AC50 [3]: 0.912 µM (active)
AC50 [4]: 2.98 µM (active)
AC50 [15]: 3.86 µM (active)
AC50 [6]: 8.13 µM (active)

EC50 [16]: 44.4 µM (inactive)
AC50 [2]: 4.32 µM (active)
IC50 [17]: 4.46 µM (active)
IC50 [18]: 28.3 µM (inactive)
Structure (SMILES): COC1=CC(=O)c2nc(Cl)ccc2C1=O
